Among the data in ChEMBL document CHEMBL1134506, “Design and synthesis of 2-methyl-2-[4-(2-[5-methyl-2-aryloxazol-4-yl]ethoxy)phenoxy]propionic acids: a new class of dual PPARalpha/gamma agonists” (J Med Chem, 2001) are Efficacy, IC50 and EC50 values, retold here.

Molecules are shown by their SMILES.

The target of experiment [1] is T1, Peroxisome proliferator-activated receptor alpha (Homo sapiens) (UniProt Q07869).
T1 sequence (whole entry): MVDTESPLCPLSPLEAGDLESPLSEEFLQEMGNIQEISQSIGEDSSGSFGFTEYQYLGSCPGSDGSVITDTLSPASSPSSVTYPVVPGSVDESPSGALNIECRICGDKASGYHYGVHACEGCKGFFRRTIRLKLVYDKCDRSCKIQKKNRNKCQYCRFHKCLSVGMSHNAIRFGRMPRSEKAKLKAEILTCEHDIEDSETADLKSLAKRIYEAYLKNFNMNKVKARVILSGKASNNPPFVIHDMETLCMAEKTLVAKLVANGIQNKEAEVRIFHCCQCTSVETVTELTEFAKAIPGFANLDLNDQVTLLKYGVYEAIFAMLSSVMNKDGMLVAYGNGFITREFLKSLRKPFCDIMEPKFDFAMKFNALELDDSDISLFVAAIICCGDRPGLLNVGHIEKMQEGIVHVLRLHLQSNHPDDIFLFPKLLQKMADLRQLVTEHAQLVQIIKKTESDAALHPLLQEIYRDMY
The experiment in a line: (§1) Binding affinity at human PPAR alpha.

The target in experiment [2] is T2, Peroxisome proliferator-activated receptor alpha (Homo sapiens, UniProt Q07869).
T2 sequence (Q07869 whole entry): T1 sequence (whole entry)
The experiment in a line: Binding affinity towards human […] proliferator activated receptor alpha (hPPARalpha); No binding.

Experiment [3] concerns the target T2, Peroxisome proliferator-activated receptor alpha. Described as §1.
Experiment [4] has the same target. The experiment in a line: Binding affinity towards human […] proliferator activated receptor alpha (hPPARalpha).
Experiment [5] deals with T3, Peroxisome proliferator-activated receptor gamma (Homo sapiens, UniProt P37231).
T3 sequence (P37231 whole entry): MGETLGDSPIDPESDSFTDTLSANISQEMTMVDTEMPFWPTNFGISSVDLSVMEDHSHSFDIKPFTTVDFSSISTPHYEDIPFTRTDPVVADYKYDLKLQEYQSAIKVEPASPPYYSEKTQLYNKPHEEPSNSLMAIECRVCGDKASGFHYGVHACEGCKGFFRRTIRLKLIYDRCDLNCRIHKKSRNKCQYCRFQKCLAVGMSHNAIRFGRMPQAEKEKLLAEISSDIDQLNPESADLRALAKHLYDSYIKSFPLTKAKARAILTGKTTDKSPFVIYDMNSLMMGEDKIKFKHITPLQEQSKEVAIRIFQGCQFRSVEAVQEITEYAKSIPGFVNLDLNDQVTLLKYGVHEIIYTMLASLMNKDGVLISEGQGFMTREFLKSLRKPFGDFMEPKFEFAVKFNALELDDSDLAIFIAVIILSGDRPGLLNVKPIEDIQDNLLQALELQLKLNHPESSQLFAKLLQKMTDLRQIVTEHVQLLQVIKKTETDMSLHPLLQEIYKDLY

Experiment [6] deals with T3, Peroxisome proliferator-activated receptor gamma. The source holds these as a separate data set.
Description: Binding affinity at human peroxidase proliferator activated receptor gamma (hPPARgamma)
For experiment [7], the target named is T4, Peroxisome proliferator-activated receptor gamma (Homo sapiens) (UniProt P37231).
T4 sequence (whole entry): T3 sequence (P37231 whole entry)
The experiment is described as follows: Binding affinity at human PPAR gamma.

For experiment [8], the target named is T3, Peroxisome proliferator-activated receptor gamma. The experiment is described as follows: Binding affinity at human […] proliferator activated receptor gamma (hPPARgamma); No binding.

As for `Cc1c(C)c2c(c(C)c1O)CCC(C)(COc1ccc(CC3SC(=O)NC3=O)cc1)O2` (stereo unspecified) [TROGLITAZONE], the Efficacy in experiment [1] was below 20%. Further, in experiment [2], the IC50 result is given as “Not Active”.

Turning to `Cc1oc(-c2ccccc2)nc1CCOc1ccc(OC(C)(C)C(=O)O)cc1`, the figures for the EC50 in experiment [3] and in experiment [5] were 717 nM and 2060 nM, respectively. The IC50 in experiment [4] was determined as 1440 nM; in experiment [6] it was 3020 nM.

In the case of `CC(C)(Oc1ccc(C(=O)c2ccc(Cl)cc2)cc1)C(=O)O` [FENOFIBRIC ACID], the Efficacy in experiment [1] and in experiment [7] was below 20% in each case. Also, the IC50 in experiment [4] was 68000 nM; in experiment [8] it was “Not Active”.

As for `Cc1oc(-c2ccccc2)nc1CCOc1ccc(CC2SC(=O)NC2=O)cc1` (stereo unspecified), the EC50 was 771 nM in experiment [3] and 8 nM in experiment [5]. Moreover, the IC50 in experiment [4] turned out to be 4090 nM; in experiment [6] it was 14 nM.

Regarding `CN(CCOc1ccc(CC2SC(=O)NC2=O)cc1)c1ccccn1` (stereo unspecified), in experiment [1], the Efficacy was determined as 20%.

For `Cc1oc(-c2ccc(-c3ccccc3)cc2)nc1CCOc1ccc(OC(C)(C)C(=O)O)cc1`, the EC50 in experiment [3] came out at 149 nM; in experiment [5] it was 882 nM. For the same molecule, the IC50 came out at 174 nM in experiment [4] and 548 nM in experiment [6].

In the case of `Cc1oc(-c2ccc(Br)cc2)nc1CCOc1ccc(OC(C)(C)C(=O)O)cc1`, the EC50 in experiment [3] was 61.9 nM; in experiment [5] it was 1720 nM. The IC50 in experiment [4] turned out to be 242 nM; in experiment [6], 4560 nM.

Regarding `Cc1oc(-c2ccccc2)nc1CCOc1ccc(OCC(=O)O)cc1`, in experiment [3], the EC50 is 2750 nM. Further, the IC50 in experiment [4] and in experiment [6] was 10600 nM in each case. Also, in experiment [7], the Efficacy turned out to be 20%.

Consider `Cc1oc(-c2ccccc2)nc1CCOc1ccc(OC(C)C(=O)O)cc1` (stereo unspecified), for which the values for the EC50 in experiment [3] and in experiment [5] were 625 nM and 2750 nM, respectively. The IC50 in experiment [4] was determined as 2030 nM; in experiment [6], 3120 nM.

The term IC50 denotes the concentration needed to halve the response being measured. A lower IC50 goes with greater potency in that assay. In general, EC50 refers to the concentration giving half of the maximal effect.
